According to patent publication US7151191B2, “Compounds and compositions for delivering active agents” (Emisphere Technologies, Inc., priority 2000, dated 2006):

| SMILES | melting point |
| --- | --- |
| O=C(O)CCCCCCCOc1ccc(Cl)cc1NC(=O)c1ccccc1O [Compound 1, 8-[(N-Salicyloyl-2-amino-4-chloro)phenoxyl]octanoic acid] | 152 to 153 °C |
| O=C(O)CCCCOc1ccc(Cl)cc1NC(=O)c1ccccc1O [Compound 2] | 166 to 169 °C |
| O=C(O)CCCOc1ccc(Cl)cc1NC(=O)c1ccccc1O [Compound 3] | 231 to 234 °C |
| O=C(O)CCCCCCCOc1ccccc1NC(=O)c1ccccc1O [Compound 4] | 122 to 124 °C |
| O=C(O)CCCCOc1ccccc1NC(=O)c1ccccc1O [Compound 5] | 147 to 149 °C |
| COc1cccc(C(=O)Nc2ccc(OCCC(=O)O)cc2)c1OC [Compound 7] | 135 to 137 °C |
| O=C(O)CCOc1ccc(NC(=O)c2ccccc2O)cc1 [Compound 8, 3-(4-salicyloylamino)phenoxy propionic acid] | 165 to 167 °C |
| COc1ccccc1C(=O)Nc1ccc(OCCC(=O)O)cc1 [Compound 9] | 154 to 158 °C |
| O=C(O)COc1ccc(CCCNC(=O)c2ccccc2O)cc1 [Compound 10] | 124 to 126.5 °C |
